In ChEMBL document CHEMBL3885881, “DrugMatrix”:

Organism: Rattus norvegicus
Test: DrugMatrix - Regimen: Daily Repeat
Format: toxicity, organism-based, Sprague-Dawley
Parameters: regimen Daily Repeat, gender Male, age 6-8 weeks
Settings: in vivo, po, route oral GAVAGE, […]; for ABSOLUTE BASOPHIL / ABSOLUTE EOSINOPHIL / ABSOLUTE LYMPHOCYTE / ABSOLUTE MONOCYTE / ABSOLUTE SEGMENTED NEUTROPHIL / BASOPHIL / EOSINOPHIL / ERYTHROCYTE COUNT / HEMATOCRIT / HEMOGLOBIN / LEUKOCYTE COUNT / LYMPHOCYTE / MEAN CORPUSCULAR HEMOGLOBIN / MEAN CORPUSCULAR HEMOGLOBIN CONCENTRATION / MEAN CORPUSCULAR VOLUME / MONOCYTE / NEUTROPHIL / NUCLEATED RED BLOOD CELLS / PLATELET COUNT: tissue Blood; for ALANINE AMINOTRANSFERASE / ALBUMIN / ALKALINE PHOSPHATASE / ASPARTATE AMINOTRANSFERASE / BLOOD UREA NITROGEN / CARBON DIOXIDE / CHLORIDE / CHOLESTEROL / CREATINE PHOSPHOKINASE / CREATININE / GLUCOSE / LACTATE DEHYDROGENASE / LIPASE / PHOSPHORUS / POTASSIUM / SODIUM / TOTAL BILIRUBIN / TOTAL PROTEIN / URIC ACID: tissue Plasma
[1] = 25 mg/kg, 120 h, dose level Low, time 5 day
[2] = 800 mg/kg, 72 h, dose level High, time 3 day
[3] = 800 mg/kg, 120 h, dose level High, time 5 day

Compound: CC(C)(C)NC(=O)[C@H]1CC[C@H]2[C@@H]3CC[C@H]4NC(=O)C=C[C@]4(C)[C@H]3CC[C@]12C [FINASTERIDE]
- ABSOLUTE BASOPHIL [1]: 0 CELLS/uL
- ABSOLUTE EOSINOPHIL [1]: 34.67 CELLS/uL
- ABSOLUTE LYMPHOCYTE [1]: 7140 CELLS/uL
- ABSOLUTE MONOCYTE [1]: 141.33 CELLS/uL
- ABSOLUTE SEGMENTED NEUTROPHIL [1]: 817.33 CELLS/uL
- BASOPHIL [1]: 0%
- EOSINOPHIL [1]: 0.67%
- ERYTHROCYTE COUNT [1]: 5.11 x10E6/uL
- HEMATOCRIT [1]: 33.07%
- HEMOGLOBIN [1]: 13.03 G/DL
- LEUKOCYTE COUNT [1]: 8.13 x10E3/uL
- LYMPHOCYTE [1]: 87.67%
- MEAN CORPUSCULAR HEMOGLOBIN [1]: 25.53 pg
- MEAN CORPUSCULAR HEMOGLOBIN CONCENTRATION [1]: 39.4 G/DL
- MEAN CORPUSCULAR VOLUME [1]: 64.77 fL
- MONOCYTE [1]: 1.67%
- NEUTROPHIL [1]: 10%
- NUCLEATED RED BLOOD CELLS [1]: 0 /100WBC
- PLATELET COUNT [1]: 1248.33 x10E3/uL
- ALANINE AMINOTRANSFERASE [1]: 61 u/L
- ALBUMIN [1]: 4.23 G/DL
- ALKALINE PHOSPHATASE [1]: 355.67 u/L
- ASPARTATE AMINOTRANSFERASE [1]: 74.67 u/L
- BLOOD UREA NITROGEN [1]: 11.67 mg/dL
- CARBON DIOXIDE [1]: 32.33 mmol/L
- CHLORIDE [1]: 103 MEQ/L
- CHOLESTEROL [1]: 87.33 mg/dL
- CREATINE PHOSPHOKINASE [1]: 247.33 u/L
- CREATININE [1]: 0.43 mg/dL
- GLUCOSE [1]: 152 mg/dL
- LACTATE DEHYDROGENASE [1]: 82.33 u/L
- LIPASE [1]: 11 u/L
- PHOSPHORUS [1]: 11.7 mg/dL
- POTASSIUM [1]: 6.04 MEQ/L
- SODIUM [1]: 146.03 MEQ/L
- TOTAL BILIRUBIN [1]: 0.17 mg/dL
- TOTAL PROTEIN [1]: 5.93 G/DL
- URIC ACID [1]: 0.8 mg/dL
- ABSOLUTE BASOPHIL [2]: 0 CELLS/uL
- ABSOLUTE EOSINOPHIL [2]: 0 CELLS/uL
- ABSOLUTE LYMPHOCYTE [2]: 7333 CELLS/uL
- ABSOLUTE MONOCYTE [2]: 111.33 CELLS/uL
- ABSOLUTE SEGMENTED NEUTROPHIL [2]: 889 CELLS/uL
- BASOPHIL [2]: 0%
- EOSINOPHIL [2]: 0%
- ERYTHROCYTE COUNT [2]: 5.15 x10E6/uL
- HEMATOCRIT [2]: 31.93%
- HEMOGLOBIN [2]: 12.77 G/DL
- LEUKOCYTE COUNT [2]: 8.33 x10E3/uL
- LYMPHOCYTE [2]: 88.33%
- MEAN CORPUSCULAR HEMOGLOBIN [2]: 24.83 pg
- MEAN CORPUSCULAR HEMOGLOBIN CONCENTRATION [2]: 40 G/DL
- MEAN CORPUSCULAR VOLUME [2]: 62.17 fL
- MONOCYTE [2]: 1.33%
- NEUTROPHIL [2]: 10.33%
- NUCLEATED RED BLOOD CELLS [2]: 0 /100WBC
- PLATELET COUNT [2]: 974.67 x10E3/uL
- ALANINE AMINOTRANSFERASE [2]: 103.67 u/L
- ALBUMIN [2]: 3.93 G/DL
- ALKALINE PHOSPHATASE [2]: 409.67 u/L
- ASPARTATE AMINOTRANSFERASE [2]: 102.67 u/L
- BLOOD UREA NITROGEN [2]: 11 mg/dL
- CARBON DIOXIDE [2]: 26 mmol/L
- CHLORIDE [2]: 102.33 MEQ/L
- CHOLESTEROL [2]: 70.33 mg/dL
- CREATINE PHOSPHOKINASE [2]: 348.33 u/L
- CREATININE [2]: 0.1 mg/dL
- GLUCOSE [2]: 149 mg/dL
- LACTATE DEHYDROGENASE [2]: 104.67 u/L
- LIPASE [2]: 10.67 u/L
- PHOSPHORUS [2]: 11.3 mg/dL
- POTASSIUM [2]: 5.02 MEQ/L
- SODIUM [2]: 144 MEQ/L
- TOTAL BILIRUBIN [2]: 0.1 mg/dL
- TOTAL PROTEIN [2]: 5.37 G/DL
- URIC ACID [2]: 0.87 mg/dL
- ABSOLUTE BASOPHIL [3]: 0 CELLS/uL
- ABSOLUTE EOSINOPHIL [3]: 85.67 CELLS/uL
- ABSOLUTE LYMPHOCYTE [3]: 6528 CELLS/uL
- ABSOLUTE MONOCYTE [3]: 164.33 CELLS/uL
- ABSOLUTE SEGMENTED NEUTROPHIL [3]: 922 CELLS/uL
- BASOPHIL [3]: 0%
- EOSINOPHIL [3]: 1%
- ERYTHROCYTE COUNT [3]: 5.25 x10E6/uL
- HEMATOCRIT [3]: 33.4%
- HEMOGLOBIN [3]: 12.97 G/DL
- LEUKOCYTE COUNT [3]: 7.7 x10E3/uL
- LYMPHOCYTE [3]: 85%
- MEAN CORPUSCULAR HEMOGLOBIN [3]: 24.7 pg
- MEAN CORPUSCULAR HEMOGLOBIN CONCENTRATION [3]: 38.83 G/DL
- MEAN CORPUSCULAR VOLUME [3]: 63.67 fL
- MONOCYTE [3]: 2%
- NEUTROPHIL [3]: 12%
- NUCLEATED RED BLOOD CELLS [3]: 0 /100WBC
- PLATELET COUNT [3]: 1238.33 x10E3/uL
- ALANINE AMINOTRANSFERASE [3]: 55.33 u/L
- ALBUMIN [3]: 4.33 G/DL
- ALKALINE PHOSPHATASE [3]: 297 u/L
- ASPARTATE AMINOTRANSFERASE [3]: 76.67 u/L
- BLOOD UREA NITROGEN [3]: 13.67 mg/dL
- CARBON DIOXIDE [3]: 32.33 mmol/L
- CHLORIDE [3]: 103 MEQ/L
- CHOLESTEROL [3]: 66.33 mg/dL
- CREATINE PHOSPHOKINASE [3]: 232.33 u/L
- CREATININE [3]: 0.12 mg/dL
- GLUCOSE [3]: 157.67 mg/dL
- LACTATE DEHYDROGENASE [3]: 64.33 u/L
- LIPASE [3]: 10.33 u/L
- PHOSPHORUS [3]: 11.1 mg/dL
- POTASSIUM [3]: 5.99 MEQ/L
- SODIUM [3]: 147.03 MEQ/L
- TOTAL BILIRUBIN [3]: 0.1 mg/dL
- TOTAL PROTEIN [3]: 6.07 G/DL
- URIC ACID [3]: 0.5 mg/dL
